Assay results as given in patent US10154997B2, “Treatment of parasitic diseases using KDAC inhibitor compounds” (Washington University, priority 2015, dated 2018).
Where two headings read alike, the source gives them in different places.

Experiments:
[1] = system: parasites (nematodes and protists); assay: Compound screening in parasites, summary statements
L929 mouse fibroblast = assay: Cytotoxicity viability assay (CYT vt); assay type: cell-based
B. malayi = assay: Endoparasites dose response assay (Endoparasites_DR), B. malayi; parameters: species or system Brugia malayi; conditions: nematode B. malayi
human cancer cell lines = assay: Activity on human cancer cell lines; assay type: cell-based
H. contortus = assay: Endoparasites dose response assay (Endoparasites_DR), H. contortus; conditions: Haemonchus contortus, 96 h

SMILES: CC(C)(C)OC(=O)Nc1cccc(C(=O)/C=C/c2ccc(/C=C/C(=O)NO)cc2)c1 [MC2780]
- pan-parasite potential ([1]; across parasites screened): demonstrated pan-parasite potential

SMILES: Cn1cc(/C=C/C(=O)c2cccc(NC(=O)OC(C)(C)C)c2)cc1C(=O)NO [MC2776]
- IC50 (L929 mouse fibroblast; host-cell line, read-out: activity in the host-cell line): > 10 µM
- EC50 (B. malayi): 4.39 µM
- IC50 (human cancer cell lines): > 10 µM
- efficacy in the protists ([1]; any of the protists): did not show any efficacy

SMILES: CCCCCCCC(=O)SCC/C=C/[C@@H]1CC(=O)NCc2nc(cs2)C2=N[C@@](C)(CS2)C(=O)N[C@@H](C(C)C)C(=O)O1 [SD-L-148, Largazole, reference compound]
- IC50 (L929 mouse fibroblast; Mus musculus, L929): 0.101 µM
- IC50 (H. contortus): 7.1 µM
